Patent publication US11608353B2, “Amylase inhibitor compounds, methods of their use and compositions thereof” (THE UNIVERSITY OF BRITISH COLUMBIA, priority 2016, dated 2023)
Positions count from the first letter of the chain named. “And” between values parts separate entries of the source, which are not always exact repeats. Equal values may be shown once. Read-outs that look alike come from different tables or passages of the source. Values belong to the compound of their own block, whether it stands above or below them.

Tests used:
[1] = target: T1, human pancreatic α-amylase (HPA) (Homo sapiens, UniProt P04746); assay: Inhibition of wild-type human pancreatic α-amylase (HPA), kinetic KI determination with CNP-G3; assay type: biochemical
T1 construct: made in house; host or cells: Pichia pastoris strain GM5011
T1 sequence (P04746 16-511): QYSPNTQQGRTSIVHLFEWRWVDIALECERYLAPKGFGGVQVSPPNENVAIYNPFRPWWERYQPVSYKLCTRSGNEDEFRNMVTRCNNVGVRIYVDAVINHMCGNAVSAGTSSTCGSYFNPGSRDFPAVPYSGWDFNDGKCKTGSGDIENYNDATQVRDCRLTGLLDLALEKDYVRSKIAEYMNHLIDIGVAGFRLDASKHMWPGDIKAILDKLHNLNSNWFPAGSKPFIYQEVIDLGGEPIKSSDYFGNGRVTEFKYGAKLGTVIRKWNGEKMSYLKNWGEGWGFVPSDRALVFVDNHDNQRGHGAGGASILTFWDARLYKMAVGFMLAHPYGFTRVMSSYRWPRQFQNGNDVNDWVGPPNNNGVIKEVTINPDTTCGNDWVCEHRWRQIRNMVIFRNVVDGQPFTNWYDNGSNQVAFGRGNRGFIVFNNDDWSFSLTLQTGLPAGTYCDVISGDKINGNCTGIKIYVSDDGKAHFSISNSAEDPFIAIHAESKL

Homo sapiens ntMGAM = target: T2, Homo sapiens ntMGAM (Homo sapiens, UniProt O43451); assay: Inhibition of N-terminal domain of maltase glucoamylase; assay type: biochemical; conditions: for Ki: GH family 31
T2 construct: Homo sapiens ntMGAM
T2 sequence (O43451 356-737 limits assumed): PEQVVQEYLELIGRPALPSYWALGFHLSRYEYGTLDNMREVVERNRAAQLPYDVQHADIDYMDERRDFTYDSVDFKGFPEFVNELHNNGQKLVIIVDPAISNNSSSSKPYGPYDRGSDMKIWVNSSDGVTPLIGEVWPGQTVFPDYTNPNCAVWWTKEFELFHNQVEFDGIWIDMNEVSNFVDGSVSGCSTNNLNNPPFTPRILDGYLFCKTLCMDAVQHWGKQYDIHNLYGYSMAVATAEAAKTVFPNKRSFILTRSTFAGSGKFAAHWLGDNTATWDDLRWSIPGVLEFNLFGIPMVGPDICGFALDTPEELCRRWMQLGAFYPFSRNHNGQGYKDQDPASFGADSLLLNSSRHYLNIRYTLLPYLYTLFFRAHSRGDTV

H. sapiens ctMGAM = target: T3, H. sapiens ctMGAM (Homo sapiens, UniProt O43451); assay: Inhibition of C-terminal domain of maltase-glucoamylase; assay type: biochemical; conditions: for Ki: GH family 31
T3 construct: H. sapiens ctMGAM
T3 sequence (O43451 1221-1632 limits assumed): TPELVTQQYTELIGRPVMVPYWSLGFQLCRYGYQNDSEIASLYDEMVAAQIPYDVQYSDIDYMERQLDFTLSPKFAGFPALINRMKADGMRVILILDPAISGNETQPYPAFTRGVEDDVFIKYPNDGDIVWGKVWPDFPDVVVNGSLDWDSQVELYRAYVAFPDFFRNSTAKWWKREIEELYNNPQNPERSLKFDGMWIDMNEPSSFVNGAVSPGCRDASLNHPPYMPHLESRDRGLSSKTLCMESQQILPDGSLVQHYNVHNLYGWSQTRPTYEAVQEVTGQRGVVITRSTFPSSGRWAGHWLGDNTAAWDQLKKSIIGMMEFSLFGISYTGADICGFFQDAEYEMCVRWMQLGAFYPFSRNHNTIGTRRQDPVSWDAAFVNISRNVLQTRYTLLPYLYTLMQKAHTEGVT

diabetic rat model = conditions: McNeill, unpublished data; cited from earlier work
[2] = target: Roseburia inulinivorans Amy A (Roseburia inulinivorans, UniProt A0ACG1Y5C3); assay: Inhibition of gut bacterial amylase Roseburia inulinivorans Amy A; assay type: biochemical; conditions: for Ki: GH family 13
Roseburia inulinivorans Amy A, sequence (A0ACG1Y5C3 entry or part of it): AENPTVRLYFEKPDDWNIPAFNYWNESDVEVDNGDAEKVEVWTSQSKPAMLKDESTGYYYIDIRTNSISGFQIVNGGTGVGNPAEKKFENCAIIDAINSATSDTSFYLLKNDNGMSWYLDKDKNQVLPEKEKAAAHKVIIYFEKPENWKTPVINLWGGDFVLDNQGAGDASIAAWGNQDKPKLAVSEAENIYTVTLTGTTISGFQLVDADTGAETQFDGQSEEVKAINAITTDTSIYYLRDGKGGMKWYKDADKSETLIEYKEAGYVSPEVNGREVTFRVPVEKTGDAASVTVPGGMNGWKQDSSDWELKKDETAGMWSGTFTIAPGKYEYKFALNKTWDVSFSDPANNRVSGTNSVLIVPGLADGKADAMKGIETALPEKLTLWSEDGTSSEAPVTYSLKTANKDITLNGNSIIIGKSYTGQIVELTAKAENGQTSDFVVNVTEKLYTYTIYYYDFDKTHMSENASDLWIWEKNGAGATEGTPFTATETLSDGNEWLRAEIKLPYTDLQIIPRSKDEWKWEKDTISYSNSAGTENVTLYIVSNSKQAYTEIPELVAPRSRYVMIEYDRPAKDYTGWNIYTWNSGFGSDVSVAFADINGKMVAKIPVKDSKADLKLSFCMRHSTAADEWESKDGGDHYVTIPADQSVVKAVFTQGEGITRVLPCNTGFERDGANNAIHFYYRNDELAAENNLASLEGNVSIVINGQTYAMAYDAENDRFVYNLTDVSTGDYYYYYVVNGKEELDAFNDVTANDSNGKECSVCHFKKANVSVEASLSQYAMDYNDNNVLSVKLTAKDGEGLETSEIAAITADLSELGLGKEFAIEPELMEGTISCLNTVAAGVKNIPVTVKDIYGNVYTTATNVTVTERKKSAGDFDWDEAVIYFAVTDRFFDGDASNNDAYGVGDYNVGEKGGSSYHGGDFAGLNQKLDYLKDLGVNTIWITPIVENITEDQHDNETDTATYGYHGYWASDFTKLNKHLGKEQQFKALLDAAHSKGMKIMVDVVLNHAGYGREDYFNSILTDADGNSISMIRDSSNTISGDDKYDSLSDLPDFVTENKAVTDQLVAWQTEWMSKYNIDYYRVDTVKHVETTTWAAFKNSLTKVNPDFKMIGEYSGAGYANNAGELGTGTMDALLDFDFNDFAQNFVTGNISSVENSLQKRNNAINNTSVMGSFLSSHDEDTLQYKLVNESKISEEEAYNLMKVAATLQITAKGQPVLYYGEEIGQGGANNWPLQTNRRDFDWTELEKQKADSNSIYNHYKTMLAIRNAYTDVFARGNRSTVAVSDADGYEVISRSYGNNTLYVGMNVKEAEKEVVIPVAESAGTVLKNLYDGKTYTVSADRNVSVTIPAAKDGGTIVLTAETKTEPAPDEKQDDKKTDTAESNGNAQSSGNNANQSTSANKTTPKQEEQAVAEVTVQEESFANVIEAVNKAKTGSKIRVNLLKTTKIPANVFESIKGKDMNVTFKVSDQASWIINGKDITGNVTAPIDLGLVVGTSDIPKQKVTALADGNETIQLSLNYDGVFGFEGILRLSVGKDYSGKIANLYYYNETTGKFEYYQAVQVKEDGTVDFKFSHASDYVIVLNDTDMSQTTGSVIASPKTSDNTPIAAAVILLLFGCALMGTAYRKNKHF

[3] = target: T1, human pancreatic α-amylase (HPA); conditions: literature value, reference (5); read-out: Ki, binds to HPA; cited from earlier work
H299N HPA = target: T4, H299N HPA (Homo sapiens, UniProt P04746, H314N); assay: Inhibition of H299N variant HPA, kinetic KI determination; assay type: biochemical; conditions: variant used for co-crystallization; read-out: KI for inhibition of the H299N HPA variant enzyme
T4 construct: made in house; host or cells: Pichia pastoris strain GM5011
T4 sequence (P04746 16-511 H314N): T1 sequence (P04746 16-511) with H299N
Experimental: Kinetic Studies. The inhibition constants (KI) of montbretins A-E and MbA substructures for wild-type HPA, along with MbA for H299N HPA were determined by measuring the rates of reactions at different inhibitor and substrate concentrations. […] 2-Chloro-4-nitrophenyl α-D-maltotrioside (CNP-G3) was used as the substrate in a similar range of concentrations. Initial reaction rates for the release of chloronitrophenolate were measured and the further progress of substrate cleavage monitored continuously. Reactions were performed on a Varian Cary 4000 UV/Vis spectrophotometer at 400 nm and 30° C. Observed reaction rates were fitted directly to various inhibition models using GraFit version 5.0.13 and KI values were determined. Competitive inhibition provided the best fit in each case.

H. sapiens ctSI = target: T5, H. sapiens ctSI (Homo sapiens, UniProt P14410); assay: Inhibition of C-terminal domain of sucrose-isomaltase; assay type: biochemical
T5 construct: H. sapiens ctSI
T5 sequence (P14410 1008-1827 limits assumed): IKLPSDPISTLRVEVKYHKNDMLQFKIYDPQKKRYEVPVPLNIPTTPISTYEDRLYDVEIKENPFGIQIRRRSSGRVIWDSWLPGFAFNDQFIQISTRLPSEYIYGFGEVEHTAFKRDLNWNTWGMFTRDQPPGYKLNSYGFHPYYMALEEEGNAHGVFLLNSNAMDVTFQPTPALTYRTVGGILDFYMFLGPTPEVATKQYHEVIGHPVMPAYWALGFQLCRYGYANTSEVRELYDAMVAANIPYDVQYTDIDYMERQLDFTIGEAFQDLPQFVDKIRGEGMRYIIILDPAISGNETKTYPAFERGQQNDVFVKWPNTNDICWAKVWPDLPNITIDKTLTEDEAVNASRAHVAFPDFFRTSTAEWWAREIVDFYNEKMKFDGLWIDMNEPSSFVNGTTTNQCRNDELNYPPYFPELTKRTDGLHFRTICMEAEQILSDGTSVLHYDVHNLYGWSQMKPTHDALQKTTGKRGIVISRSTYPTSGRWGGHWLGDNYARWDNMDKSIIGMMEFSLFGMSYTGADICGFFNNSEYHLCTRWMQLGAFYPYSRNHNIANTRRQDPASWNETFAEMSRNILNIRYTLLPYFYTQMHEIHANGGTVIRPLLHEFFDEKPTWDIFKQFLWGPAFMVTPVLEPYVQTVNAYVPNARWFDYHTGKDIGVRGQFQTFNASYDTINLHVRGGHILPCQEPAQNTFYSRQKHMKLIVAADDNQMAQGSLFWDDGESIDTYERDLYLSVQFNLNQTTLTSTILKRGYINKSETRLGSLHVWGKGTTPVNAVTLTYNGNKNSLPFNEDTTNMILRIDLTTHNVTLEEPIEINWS

[4] = target: Butyrivibrio fibrisolvens Amy B; assay: Inhibition of gut bacterial amylase Butyrivibrio fibrisolvens Amy B; assay type: biochemical
[5] = wild-type HPA, CNP-G3 substrate, pH 7.0, 30° C., competitive inhibition model, read-out: Ki of HPA
[6] = Tables 4 and 5, read-out: Ki (HPA Inhibition)
[7] = tested at 500 μM, read-out: Ki with MbA
[8] = Table 6, GH family 13, mean ± s.d., read-out: Ki (nM), HPA
[9] = tested at 100 μM, read-out: Ki With MbA-GRX

lower inhibition for HPA than MbB ([1]; relative to MbB): 2 ×
Compound: montbretin C [MbC]

Ki [1, 5]: 79 nM and 79.3 nM
Compound: CC1O[C@@H](Oc2c(-c3cc(O)c(O[C@@H]4OC[C@@H](O)C(O)C4O)c(O)c3)oc3cc(O)cc(O)c3c2=O)C(O[C@@H]2OC(COC(=O)/C=C/c3ccc(O)c(O)c3)[C@@H](O)C(O)C2O)C(O)[C@H]1O (stereo partly drawn) [MbA-1GR]

Ki [1, 6]: 45000 nM
Compound: O=C(/C=C/c1ccc(O)c(O)c1)N[C@@H]1[C@H](O)[C@@H](O)[C@H](O[C@H]2[C@H](O)[C@@H](O)[C@H](Oc3c(-c4ccc(O)c(O)c4)oc4cc(O)cc(O)c4c3=O)O[C@@H]2CO)O[C@@H]1CO [12 (4-aminoGal)]

Ki [1, 6]: 4000 nM
Compound: O=C(/C=C/c1ccc(O)c(O)c1)NCCCCCCCOc1c(-c2ccc(O)c(O)c2)oc2cc(O)cc(O)c2c1=O [Compound 05]

Ki [1, 5]: 43 nM and 42.4 nM
Compound: CC1O[C@@H](Oc2c(-c3cc(O)c(O)c(O)c3)oc3cc(O)cc(O)c3c2=O)C(O[C@@H]2OC(COC(=O)/C=C/c3ccc(O)c(O)c3)[C@@H](O)[C@@H](O)C2O[C@@H]2OC(CO)[C@@H](O)[C@@H](O)C2O)[C@@H](O)[C@H]1O (stereo partly drawn) [MbA-RX]

decrease in inhibitory activity ([1]; relative to MbA, reference (5)): ~1000 ×
Compound: montbretin B [MbB]

Ki [1, 6]: 145000 nM
Compound: O=C(/C=C/c1ccc(O)c(O)c1)NCCCOc1c(-c2ccc(O)c(O)c2)oc2cc(O)cc(O)c2c1=O [Compound 03]

Compound: Montbretin E [MbE]
inhibitory activity against HPA (in words) [1]: poor inhibitory activity

Compound: montbretin A [MbA]
Ki (Homo sapiens ntMGAM; [7]): > 500000 nM
inhibition of human maltase-glucoamylase (MGAM) (in words) (Homo sapiens ntMGAM; concentrations up to 500 μM): Neither the human maltase-glucoamylase (MGAM) nor the human sucrose isomaltase (SI) was inhibited
Ki (H. sapiens ctMGAM; [7]): > 500000 nM
inhibition of human maltase-glucoamylase (MGAM) (in words) (H. sapiens ctMGAM; concentrations up to 500 μM): Neither the human maltase-glucoamylase (MGAM) nor the human sucrose isomaltase (SI) was inhibited
Ki [1, 8]: 8.1 nM
Ki [1, 6]: 8 nM
Ki [1, 5]: 4.4 nM
reducing postprandial glucose spiking and delaying the onset of diabetes (diabetic rat model): superior to other inhibitors
inhibition of gut bacterial amylase (in words) [2]: not inhibited at all
Ki [2, 7]: > 500000 nM
Ki [3]: 8 nM
Ki (H299N HPA): 124 nM
Ki (H. sapiens ctSI; GH family 31, tested at 500 μM, read-out: Ki with MbA): > 500000 nM
inhibition of human sucrose isomaltase (SI) (in words) (H. sapiens ctSI; concentrations up to 500 μM): Neither the human maltase-glucoamylase (MGAM) nor the human sucrose isomaltase (SI) was inhibited
Ki [4]: 1600 nM

Ki (Homo sapiens ntMGAM; [9]): > 100000 nM
inhibition of maltase-glucoamylase (in words) (Homo sapiens ntMGAM; MbA-GRX): No inhibition
Ki (H. sapiens ctMGAM; [9]): > 100000 nM
inhibition of maltase-glucoamylase (in words) (H. sapiens ctMGAM; MbA-GRX): No inhibition
Ki [1, 8]: 93.3 ± 7.6 nM
poorer at binding to the active site of HPA than the full structure of MbA ([1]; relative to MbA (KI=4.4 nM)): ~25 ×
Ki [1, 5]: 93 nM and 93.3 nM
Ki [2, 9]: > 100000 nM
IC50 (H. sapiens ctSI): 75500 nM
Compound: CC1O[C@@H](Oc2c(-c3cc(O)c(O)c(O)c3)oc3cc(O)cc(O)c3c2=O)C(O[C@@H]2OC(COC(=O)/C=C/c3ccc(O)c(O)c3)[C@@H](O)[C@@H](O)C2O)[C@@H](O)[C@H]1O (stereo partly drawn) [MbA-1GRX]

Compound: Montbretin D [MbD]
inhibitory activity against HPA (in words) [1]: poor inhibitory activity

Ki [1, 6]: 70000 nM
Compound: O=C(/C=C/c1ccc(O)c(O)c1)NC[C@H]1O[C@@H](O[C@H]2[C@H](O)[C@@H](O)[C@H](Oc3c(-c4ccc(O)c(O)c4)oc4cc(O)cc(O)c4c3=O)O[C@@H]2CO)[C@H](O)[C@@H](O)[C@@H]1O [11 (6-aminoGlc)]

Compound: Quercetin/Myricetin
Ki [1, 6]: 100000 nM

Ki [1, 6]: 82000 nM
Compound: O=C(/C=C/c1ccc(O)c(O)c1)NCCOCCOCCOc1c(-c2ccc(O)c(O)c2)oc2cc(O)cc(O)c2c1=O [Compound 02]
